pIC50: −log10 of the molar value.
Legend:
Btk kinase = Btk kinase (Homo sapiens (Human), UniProt Q06187); assay: Btk kinase enzymatic activity assay (HTRF); assay type: biochemical; details: Table 1; read-out: Btk IC50
Protocol: The half inhibition concentrations (IC50 values) of the compounds disclosed herein on Btk were determined at both enzymatic level and cellular level: the ability of the compounds to inhibit the activity of Btk kinase was determined in an enzymtic activity assay, and the inhibitory effect of the compounds on BCR-induced calcium flux in cells was determined in a cellular function assay.
(§1) The compounds were gradiently diluted 3 folds starting from 1 mM with 100% DMSO (totally 11 concentrations). 4 μL of each sample with a different concentration was added into 96 μL of reaction buffer (50 mM HEPES, pH 7.4, 10 mM MgCl2, 1 mM EGTA, 0.01% Tween-20, 0.005% BAS, 2 mM DTT). […] The mixture was centrifuged to mix well, followed by adding 2.5 μL of a mixture of ATP (final concentration designated as Km) and TK petide (HTRF® KinEASE™-TK, Cisbio) to initiate the reaction (total reaction volume being 10 μL). […] The enzyme activity for each compound was determined at 11 concentrations, and IC50 values were obtained by GraFit Software 6.0 (Erithacus Software).

ITK kinase = ITK kinase (Homo sapiens (Human), UniProt Q08881); assay: ITK kinase enzymatic assay (same HTRF method as BTK); assay type: biochemical; details: Table 1; read-out: Itk IC50
Protocol: as §1
In vitro activity in inhibiting ITK kinase was determined similar to that in respect of BTK kinase.

Sequence of ITK kinase (Q08881 whole entry): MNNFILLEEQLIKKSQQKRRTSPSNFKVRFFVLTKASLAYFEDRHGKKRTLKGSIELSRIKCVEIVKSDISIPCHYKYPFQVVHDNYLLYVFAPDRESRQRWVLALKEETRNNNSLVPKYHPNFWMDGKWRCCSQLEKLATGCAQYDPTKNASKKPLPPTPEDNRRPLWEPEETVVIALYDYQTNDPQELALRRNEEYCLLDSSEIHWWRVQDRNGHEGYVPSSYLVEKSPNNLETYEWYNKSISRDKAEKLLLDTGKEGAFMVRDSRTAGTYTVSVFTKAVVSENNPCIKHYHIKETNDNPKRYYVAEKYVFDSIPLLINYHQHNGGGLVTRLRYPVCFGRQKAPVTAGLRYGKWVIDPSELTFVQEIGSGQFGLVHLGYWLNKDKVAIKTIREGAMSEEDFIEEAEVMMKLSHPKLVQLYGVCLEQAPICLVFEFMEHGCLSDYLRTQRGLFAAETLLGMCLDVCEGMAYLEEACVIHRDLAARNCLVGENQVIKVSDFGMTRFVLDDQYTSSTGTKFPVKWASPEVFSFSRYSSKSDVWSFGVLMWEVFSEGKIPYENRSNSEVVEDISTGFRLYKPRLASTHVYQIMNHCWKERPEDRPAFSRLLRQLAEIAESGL
Sequence of Btk kinase (Q06187 whole entry): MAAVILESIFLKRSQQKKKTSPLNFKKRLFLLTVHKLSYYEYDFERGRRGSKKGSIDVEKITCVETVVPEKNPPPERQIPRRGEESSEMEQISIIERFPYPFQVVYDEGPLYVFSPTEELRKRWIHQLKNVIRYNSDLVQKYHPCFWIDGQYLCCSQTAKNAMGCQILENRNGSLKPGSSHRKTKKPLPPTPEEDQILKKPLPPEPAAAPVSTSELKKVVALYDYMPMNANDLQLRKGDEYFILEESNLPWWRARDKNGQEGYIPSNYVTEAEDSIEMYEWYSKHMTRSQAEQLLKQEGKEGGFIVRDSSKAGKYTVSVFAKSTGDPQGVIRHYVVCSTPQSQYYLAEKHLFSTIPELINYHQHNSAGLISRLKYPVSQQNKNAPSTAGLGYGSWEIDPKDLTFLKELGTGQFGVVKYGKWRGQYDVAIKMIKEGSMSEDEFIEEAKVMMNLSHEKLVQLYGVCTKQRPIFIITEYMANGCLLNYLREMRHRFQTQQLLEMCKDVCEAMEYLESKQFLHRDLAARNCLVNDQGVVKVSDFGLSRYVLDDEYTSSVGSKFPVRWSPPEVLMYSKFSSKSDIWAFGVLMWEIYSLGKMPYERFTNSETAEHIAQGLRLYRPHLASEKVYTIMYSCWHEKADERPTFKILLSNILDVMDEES

SMILES	pIC50 (Btk kinase)	pIC50 (ITK kinase)
NC(=O)c1c(-c2ccc(Oc3ccccc3)cc2)nn([C@@H]2CCN(C(=O)/C=C\C(=O)O)C2)c1N [Example 11, (R,Z)-4-(3-(5-amino-4-carbamoyl-3-(4-phenoxyphenyl)-1H-pyrazol-1-yl)pyrrolidin-1-yl)-4-oxobut-2-enoic Acid]	> 7.00	< 6.00
NC(=O)c1c(-c2ccc(Oc3ccccc3)cc2)nn([C@@H]2CCN(C(=O)/C=C/CN3CCCC3)C2)c1N [Example 6, (R,E)-5-amino-3-(4-phenoxyphenyl)-1-(1-(4-(pyrrolidin-1-yl)but-2-enoyl)pyrrolidin-3-yl)-1H-pyrazole-4-carboxamide]	> 7.00	< 6.00
CS(=O)(=O)NC/C=C/C(=O)N1CC[C@@H](n2nc(-c3ccc(Oc4ccccc4)cc3)c(C(N)=O)c2N)C1 [Example 14, (R,E)-5-amino-1-(1-(4-(methylsulfonamido)but-2-enoyl)pyrrolidin-3-yl)-3-(4-phenoxyphenyl)-1H-pyrazole-4-carboxamide]	> 7.00	< 6.00
NC(=O)c1c(-c2ccc(Oc3ccccc3)cc2)nn([C@@H]2CCN(C/C=C/C(=O)O)C2)c1N [Example 10, (R,E)-4-(3-(5-amino-4-carbamoyl-3-(4-phenoxyphenyl)-1H-pyrazol-1-yl)pyrrolidin-1-yl)but-2-enoic Acid]	> 7.00	< 6.00
C=CS(=O)(=O)N1CC[C@@H](n2nc(-c3ccc(Oc4ccccc4)cc3)c(C(N)=O)c2N)C1 [Example 2, (R)-5-amino-3-(4-phenoxyphenyl)-1-(1-(vinylsulfonyl)pyrrolidin-3-yl)-1H-pyrazole-4-carboxamide]	> 7.00	> 7.00
CC#CC(=O)N[C@H]1CC[C@@H](n2nc(-c3ccc(Oc4ccccc4)cc3)c(C(N)=O)c2N)CC1 [Example 18, 5-amino-1-((1s,4s)-4-(but-2-ynamido)cyclohexyl)-3-(4-phenoxyphenyl)-1H-pyrazole-4-carboxamide]	> 7.00	< 6.00
NC(=O)c1c(-c2ccc(Oc3ccccc3)cc2)nn([C@@H]2CCN(C(=O)/C=C/CBr)C2)c1N [Example 12, (R,E)-5-amino-1-(1-(4-bromobut-2-enoyl)pyrrolidin-3-yl)-3-(4-phenoxyphenyl)-1H-pyrazole-4-carboxamide]	> 7.00	< 6.00
CN(C)C/C=C/C(=O)N1CC[C@@H](n2nc(-c3ccc(Oc4ccccc4)cc3)c(C(N)=O)c2N)C1 [Example 3, (R,E)-5-amino-1-(1-(4-(dimethylamino)but-2-enoyl)pyrrolidin-3-yl)-3-(4-phenoxyphenyl)-1H-pyrazole-4-carboxamide]	> 7.00	< 6.00
C#CC(=O)N1CC[C@@H](n2nc(-c3ccc(Oc4ccccc4)cc3)c(C(N)=O)c2N)C1 [Example 17, (R)-5-amino-3-(4-phenoxyphenyl)-1-(1-propioloylpyrrolidin-3-yl)-1H-pyrazole-4-carboxamide]	> 7.00	> 7.00
NC(=O)c1c(-c2ccc(Oc3ccccc3)cc2)nn([C@@H]2CCN(C(=O)/C=C/CN3CCOCC3)C2)c1N [Example 4, (R,E)-5-amino-1-(1-(4-morpholinobut-2-enoyl)pyrrolidin-3-yl)-3-(4-phenoxyphenyl)-1H-pyrazole-4-carboxamide]	> 7.00	< 6.00
CC(C)/C=C/C(=O)N1CC[C@@H](n2nc(-c3ccc(Oc4ccccc4)cc3)c(C(N)=O)c2N)C1 [Example 8, (R,E)-5-amino-1-(1-(4-methylpent-2-enoyl)pyrrolidin-3-yl)-3-(4-phenoxyphenyl)-1H-pyrazole-4-carboxamide]	> 7.00	< 6.00
NC(=O)c1c(-c2ccc(Oc3ccccc3)cc2)nn([C@@H]2CCN(C(=O)/C=C/CO)C2)c1N [Example 15, (R,E)-5-amino-1-(1-(4-hydroxybut-2-enoyl)pyrrolidin-3-yl)-3-(4-phenoxyphenyl)-1H-pyrazole-4-carboxamide]	> 7.00	< 6.00
